Assay results: a melting point compilation (Tetko et al.; mined from patent text by program, amines drawn as free bases though some values may be those of a salt)

melting point [°C] | Structure (SMILES)
152 to 154 | COc1cc(N)c(Cl)cc1C(=O)OCC12CCCN(CCC1)C2
225 to 227 | CC(C)(C)c1ccc(/C=C/C(=O)Nc2ccc3c(c2)NCCC3)cc1
125 to 126 | O=C(c1ccc(Br)cc1F)N1CCN(c2ccncc2)CC1
132 to 133 | O=C(CCC(=O)N1CCCCC1c1ccccc1)c1ccc2c(c1)CCN(C(=O)C(F)(F)F)CC2 (stereo not drawn)
159 to 160 | CCCc1c(O)c(O)c(C(=O)O)c2ccc(C)cc12
198 | CC(C)(Oc1ccc(CC(=O)Nc2ccccc2)cc1)C(=O)O
228 to 231 | CCn1nc(C)c2c(NCc3ccccc3)c3ccccc3nc21
190 to 193 | Nc1ccc2c(=O)n3c(nc2c1)C(=Cc1ccccc1)CCC3
163 to 165 | CCC(=O)SCC(Cc1ccccc1)C(=O)Nc1cccc(C(=O)O)c1C (stereo not drawn)
72 to 75 | Cn1c2c(c3cc(OCc4ccccc4)ccc31)CC(CCN)C2 (stereo not drawn)
91 to 92 | CCC(=O)c1ccc(OC)c(O)c1
86 to 87 | CCOC(=O)C1=Cc2cc(Br)ccc2OCC1
176 to 180 | NC(=O)NC(=S)Nc1ccccc1
211 to 212 | O=c1c(-c2ccccc2)cc(C2=NCCO2)c2n1CCc1ccsc1-2
126 | CC(C)(C)OC(=O)N[C@@H](Cc1ccccc1)[C@H]1CO1
98 to 101 | CCOC(=O)CNc1cc(C(F)(F)F)ccc1C#N
160 to 165 | C[C@@H](NS(=O)(=O)c1ccc(Cl)cc1)[C@](O)(Cn1cncn1)c1ccc(Cl)cc1Cl (relative stereo)
202 to 204 | Cc1cccc2nc(-c3ccc(Cl)cc3)c(C(N)=O)c(=O)n12
153 | Cc1nc2c(OC3SCC(O)C(O)C3O)cccc2n1C (stereo not drawn)
152 to 153 | CC(=O)Oc1ccc(C2=NNC(=O)CC2C)cc1 (stereo not drawn)

melting point [°C] | Structure (SMILES)
141 to 144 | FC(F)(F)C(c1ccc(Cl)cc1)C(c1ccccc1)c1ccc(OCC2CO2)cc1 (stereo not drawn)
188 to 190 | CC(C)(C)C(F)(F)c1ccc(C[C@H]2NC(=O)O[C@H]2c2cccc(Cl)c2)cc1 (racemic)
138 to 139 | CCCCc1ccc(-c2nc3ccccc3[nH]2)nc1
195 to 197 | COc1cc(-c2cnc3ccccc3n2)cc([N+](=O)[O-])c1O
201 | CCC(=O)N(C)c1cccc(-c2nc(=O)c3ccccc3s2)n1
188 to 189 | CC(=O)c1cc(C(F)(F)F)nn1-c1ccc(NC(=O)c2cccnc2F)cc1
166 to 168 | COc1nc(C)cnc1NS(=O)(=O)c1cccnc1-c1ccc(CCC(=O)O)cc1
150 to 151 | Cc1nc(-c2cn(CC(F)(F)c3ccccc3)nn2)sc1C(=O)NCc1cccnc1
178 to 179 | COc1cc(OCc2ccccn2)ccc1/C=C/C(=O)CC(=O)/C=C/c1cc2ccccc2[nH]1
143 to 145 | CC(=O)Oc1cccc2c1NC(O)C1CCCN1C2=O (stereo not drawn)
126 to 128 | O=C1c2ccccc2C(O)(c2ccc(F)cc2)C2=NCCCN12 (stereo not drawn)
61 to 62 | N#Cc1ccc(CCCCCC(=O)O)cc1
140 to 141 | Cc1nccn1-c1nc(-c2ccc(Cl)c(Cl)c2)c(CCCO)o1
280 | CCCCn1ccc(-c2ccc(Oc3ccc(C(=O)O)cc3)cc2)c(Cl)c1=O
160 to 176 | CCOc1ccccc1C(=O)Nc1ccc(C(=O)N2Cc3cccn3Cc3ccccc32)cc1
276 to 280 | Nc1c(Cl)cccc1NC(=S)Nc1cscc1Cl
78 to 80 | O=C(O)CC1=C(Cc2ccc3ccccc3c2)C(=O)CCC1
202 to 204 | COC(=O)/C=C/c1cccc(-c2c(CC(=O)Nc3ccc(Cl)cc3C(F)(F)F)c(=O)oc3cc(Cl)c(C)cc23)c1
184 to 185 | O=C(O)CC(Br)C(Br)c1ccc(Cl)cc1Cl (stereo not drawn)
188 | CCCC(C)(O)C(=O)Nc1cc(Br)[nH]c(=O)c1 (stereo not drawn)

melting point [°C] | Structure (SMILES)
148 to 150 | CC(C)(C)OC(=O)NNc1ccc2ccccc2n1
130 to 131 | O=C(O)CC1CCCc2c1n(Cc1ccc(Cl)cc1)c1c(F)cc(F)cc21 (stereo not drawn)
120 | O=C(NCC(=O)OCCC(F)=C(F)F)Nc1ccc(Cl)cc1Cl
244 | COc1ccc(C2=NN(C3CCN(S(=O)(=O)c4cccc(C(=O)O)c4)CC3)C(=O)C2(C)C)cc1OC
132 to 134 | O=C1OC(Cl)(C(=O)OCc2ccc([N+](=O)[O-])cc2)c2ccccc21 (stereo not drawn)
196 to 198 | O=C(Cc1cc(F)cc(F)c1)Nc1ccc(NCc2ccc(F)cc2)nc1N1CCOCC1
142 | Nc1ccc(N(CCO)C(=O)OCc2ccccc2)c(O)c1
98 to 100 | COC(=O)c1ccc2c(=O)c(Cc3ccccc3)coc2c1
200 to 201 | CN1C(=O)Cn2c(C(=O)N3CCOCC3)nnc2-c2cc(Cl)ccc21
106 to 107 | CC(C)(c1ccc(O)cc1)c1ccc(O)c(Cl)c1
229 | CC(C)(C)OC(=O)N1CCC(OCc2ccccc2)C1CC(=O)Cn1cnc2cccnc2c1=O (stereo not drawn)
200 to 203 | O=S(=O)(CCN1CCCCC1)Nc1cc(C(c2cc(F)ccc2F)S(=O)(=O)c2ccc(Cl)cc2)c(Cl)cn1 (stereo not drawn)
140 to 141 | Cn1ncc2c1-c1c(Nc3ccccc3)sc(C(N)=O)c1CC2
> 300 | Cc1nn(-c2ccccn2)c2nc3ccccc3c(C(N)=O)c12
168 | COc1cc(CNC(=O)c2ccc3n2Cc2ccccc2N(C(=O)CSc2ccc(Br)cc2)C3)ccc1O
50 to 55 | C=CCCC(F)c1cc(C2(c3ccc(OC(F)F)cc3)N=C(N)N(C)C2=O)ccc1F (stereo not drawn)
157 to 158 | CC1CCC(c2ccc(Cl)c(C(F)(F)F)c2)=NN1S(=O)(=O)c1ccc(I)cc1 (stereo not drawn)
247 to 250 | CN1C(=O)CC[C@]2(C)c3ccc(-c4cc5ccccc5s4)cc3CC[C@@H]12
196 to 198 | O=C(O)c1cc(F)c(-n2cccc2)cc1F
271 to 273 | COc1ccc2c(c1)CC(n1cc[nH]c1=S)CC2 (stereo not drawn)

Second part, the compound before the results:

Structure (SMILES) | melting point [°C]
CN(Cc1ccncc1)Cc1ccc(CCC(=O)Nc2ccc(-c3ccc(Cl)cc3)cc2)cc1 | 102
C=CC(=O)NCCCCCCCCCCCCCCCCCC | 75 to 77
O=C1CCC(=O)N1c1ccncc1 | 232 to 235
N#CC(C(=O)Nc1ccc(S(=O)(=O)C(F)(F)F)cc1)=C(O)C1CC1 | 168 to 170
O=C(Nc1ccncc1)c1n[nH]c2ccc(-c3cncc4[nH]ccc34)cc12 | > 250
c1cc(P(CCP(c2ccncc2)c2ccncc2)c2ccncc2)ccn1 | 183 to 185
CCOC(OCC)c1nc2sc(C)c(C)n2c(=O)c1C | 84 to 85
CCCNc1ccc(NCc2ccc(NCCC)nc2)nc1 | 129 to 130
NC(=C[N+](=O)[O-])NC1=CC2CCC1C2 (stereo not drawn) | 128 to 132
CCCCCCCCC(CCC)CC(=O)Nc1ccccc1 (stereo not drawn) | 98 to 100
OC1(c2cncnc2)CN2CCC1CC2 (stereo not drawn) | 126 to 127
c1ccc2cc(Cc3ncc(-c4ccc5cc(OCc6nnn[nH]6)ccc5c4)o3)ccc2c1 | 179 to 182
CC(C)c1c(C(=O)Nc2ccccc2)c(-c2ccccc2)c(-c2ccc(F)cc2)n1CC[C@@H]1C[C@H](CC(=O)OC(C)(C)C)OC(C)(C)O1 | 140 to 142
COc1ccc(Sc2ccnc(Nc3ccc(OCCN(C)C)cc3)n2)cc1 | 112 to 113
O=C1c2cc(S(=O)(=O)N3CCCCC3)ccc2SC12CC2 | 156 to 157
O=C(NN1CCOCC1)OCCCCCCOC(=O)NN1CCOCC1 | 197 to 199
C=C1C(=O)OC2OC3(C)CCC4C(C)CCC1C24OO3 (stereo not drawn) | 161 to 162
COP(=S)(OC)Oc1nsc(SC)n1 | 45
CCCCNC(=O)c1cc([N+](=O)[O-])cnc1C | 98 to 99
CC(=O)OC1CCC2(C)C(CCC3C2C(=O)CC2(C)C3CCC23OCCO3)C1 (stereo not drawn) | 116 to 123
Nc1nc(SCC2CC2)c2ncn(C3C=CC(CO)C3)c2n1 (stereo not drawn) | 125 to 127
CCCCCCCCCCCCOc1ccc(C#N)cc1-c1cc(C#N)ccc1OCCCCCCCCCCCC | 168 to 170

Structure (SMILES) | melting point [°C]
CCCCc1nc2c(N)nc3cc(Br)ccc3c2n1CC(C)C | 198 to 200
CC(C)CCCC(C)Cc1nc2c3cc(Br)sc3c3sc(Br)cc3c2nc1CC(C)CCCC(C)C (stereo not drawn) | 106 to 108
CC(=O)OCC(=O)Nc1ccc(-c2nc(C(=O)Nc3nccs3)c(-c3ccc(C)cc3)[nH]2)cc1 | > 250
C=C(Cn1cncn1)Cn1cncn1 | 52
NC(=O)c1csc(C2OC(CO)C(O)C2O)n1 (stereo not drawn) | 142 to 144
CC12CCC3C(CCC4CC(=O)CCC43C)C1CC=C2c1cccnc1 (stereo not drawn) | 190 to 192
CC(C)Nc1ccc2c(c1)N1CCN=C1S2 | 128
CCOCc1nc2c(N)nc(C)cc2n1CCCCNS(C)(=O)=O | 162 to 164
CCCCCCNc1ncnc(N(C)C)c1N | 123 to 125
CC1(C)CC(=C(c2ccc(O)cc2)c2ccc(CCO)cc2)CC(C)(C)C1 | 159 to 160
CC(C)C(=S)Nc1ccc([N+](=O)[O-])c(C(F)(F)F)c1 | 74 to 76
Cc1c2ccncc2c(C)c2c1[nH]c1ccc(O)cc12 | 307 to 309
COc1ccc(N2CCN(c3c(C)c(C)c4c(c3C)CC3(CCOCC3)O4)CC2)cc1 | 153 to 155
CC1=C(CCC(C)(O)C#CCO)C(C)(C)CCC1 (stereo not drawn) | 83 to 84
NC1=NC2CCCc3cccc(c32)N1 (stereo not drawn) | 230 to 232
COC1C(NC(=O)C(F)(F)F)CC(O)OC1C (stereo not drawn) | 185
N#Cc1ccc2oc(CCCc3cc4cc(C#N)ccc4o3)cc2c1 | 153 to 154
C[C@@H]1CNC[C@H](C)N1Cc1ccc(COc2cccc3c2CN(C2CCC(=O)NC2=O)C3=O)cc1 (stereo partly drawn) | 253 to 255
COC(=O)c1ccc(-c2nc(-c3ccc4c(c3)C(C)(C)CCC4(C)C)no2)cc1 | 166 to 168
Cc1cnc2c(c1)CCCC2NC(N)=S (stereo not drawn) | 114
CCc1[nH]n(C2CCCC2)c2nc(-c3cc(C)nc(Cl)c3)nc(=O)c1-2 | 277 to 278
